According to PMC6366416, “Synthesis and in vitro anticancer activity of certain novel 1-(2-methyl-6-arylpyridin-3-yl)-3-phenylureas as apoptosis-inducing agents” (Journal of Enzyme Inhibition and Medicinal Chemistry, 2019):

How the values were obtained:
Assay in all cases: NCI one-dose SRB growth inhibition
Assay type in all cases: cell-based
786-0 = settings: Homo sapiens, Renal Cancer, 48 h, read-out: GI% 786-0
Method: (§1) The antitumor assay was performed according to the protocol of the Drug Evaluation Branch, NCI, Bethesda[24–26]. A 48 h drug exposure protocol was adopted, and sulforhodamine B (SRB) assay[27] was utilized to assess the cell growth and viability, as reported earlier[17]^,[28].
(§2) The structures of all the newly synthesized pyridines 5a–l were submitted to the National Cancer Institute (NCI) Developmental Therapeutic Program (www.dtp.nci.nih.gov). […] Nine different types of cancer were tested in this assay: colon, ovarian, prostate, leukemia, melanoma, CNS, renal, breast and lung cancers. A 48 h drug exposure protocol was adopted, and sulforhodamine B (SRB) assay[27] was utilized to assess the cell growth and viability.

A549/ATCC = settings: Homo sapiens, A549, 48 h, Non-Small Cell Lung Cancer, read-out: GI% A549/ATCC
Method: as §1, §2

CCRF-CEM = settings: Homo sapiens, Leukemia, 48 h, read-out: GI% CCRF-CEM
Method: as §1, §2

EKVX = settings: Homo sapiens, Non-Small Cell Lung Cancer, 48 h, read-out: GI% EKVX
Method: as §1, §2

HCC-2998 = settings: Homo sapiens, Colon Cancer, 48 h, read-out: GI% HCC-2998
Method: as §1, §2

HOP-62 = settings: Homo sapiens, Non-Small Cell Lung Cancer, 48 h, read-out: GI% HOP-62
Method: as §1, §2

HOP-92 = settings: Homo sapiens, Non-Small Cell Lung Cancer, 48 h, read-out: GI% HOP-92
Method: as §1, §2

HS 578T = settings: Homo sapiens, Breast Cancer, 48 h, read-out: GI% HS 578T
Method: as §1, §2

HT29 = settings: Homo sapiens, HT-29, 48 h, Colon Cancer, read-out: GI% HT29
Method: as §1, §2

K-562 = settings: Homo sapiens, K562, 48 h, Leukemia, read-out: GI% K-562
Method: as §1, §2

M14 = settings: Homo sapiens, M14, 48 h, Melanoma, read-out: GI% M14
Method: as §1, §2

MALME-3M = settings: Homo sapiens, Melanoma, 48 h, read-out: GI% MALME-3M
Method: as §1, §2

MDA-MB-468 = settings: Homo sapiens, Breast Cancer, 48 h, read-out: GI% MDA-MB-468
Method: as §1, §2

NCI-H226 = settings: Homo sapiens, Non-Small Cell Lung Cancer, 48 h, read-out: GI% NCI-H226
Method: as §1, §2

NCI-H23 = settings: Homo sapiens, Non-Small Cell Lung Cancer, 48 h, read-out: GI% NCI-H23
Method: as §1, §2

NCI-H460 = settings: Homo sapiens, Non-Small Cell Lung Cancer, 48 h, read-out: GI% NCI-H460
Method: as §1, §2

NCI/ADR-RES = settings: Homo sapiens, Ovarian Cancer, 48 h, read-out: GI% NCI/ADR-RES
Method: as §1, §2

OVCAR-3 = settings: Homo sapiens, OVCAR-3, 48 h, Ovarian Cancer, read-out: GI% OVCAR-3
Method: as §1, §2

OVCAR-4 = settings: Homo sapiens, Ovarian Cancer, 48 h, read-out: GI% OVCAR-4
Method: as §1, §2

OVCAR-5 = settings: Homo sapiens, Ovarian Cancer, 48 h, read-out: GI% OVCAR-5
Method: as §1, §2

OVCAR-8 = settings: Homo sapiens, Ovarian Cancer, 48 h, read-out: GI% OVCAR-8
Method: as §1, §2

PC-3 = settings: Homo sapiens, PC-3, 48 h, Prostate, read-out: GI% PC-3
Method: as §1, §2

RPMI-8226 = settings: Homo sapiens, RPMI-8226, 48 h, Leukemia, read-out: GI% RPMI-8226
Method: as §1, §2

RXF 393 = settings: Homo sapiens, Renal Cancer, 48 h, read-out: GI% RXF 393
Method: as §1, §2

SF-268 = settings: Homo sapiens, CNS Cancer, 48 h, read-out: GI% SF-268
Method: as §1, §2

SF-295 = settings: Homo sapiens, CNS Cancer, 48 h, read-out: GI% SF-295
Method: as §1, §2

SK-MEL-28 = settings: Homo sapiens, Melanoma, 48 h, read-out: GI% SK-MEL-28
Method: as §1, §2

SK-MEL-2 = settings: Homo sapiens, Melanoma, 48 h, read-out: GI% SK-MEL-2
Method: as §1, §2

SNB-19 = settings: Homo sapiens, CNS Cancer, 48 h, read-out: GI% SNB-19
Method: as §1, §2

SNB-75 = settings: Homo sapiens, CNS Cancer, 48 h, read-out: GI% SNB-75
Method: as §1, §2

T-47D = settings: Homo sapiens, T47D, 48 h, Breast Cancer, read-out: GI% T-47D
Method: as §1, §2

TK-10 = settings: Homo sapiens, Renal Cancer, 48 h, read-out: GI% TK-10
Method: as §1, §2

UO-31 = settings: Homo sapiens, Renal Cancer, 48 h, read-out: GI% UO-31
Method: as §1, §2

Structure (SMILES) | inhibition at 10 µM (786-0) | inhibition at 10 µM (A549/ATCC) | inhibition at 10 µM (CCRF-CEM) | inhibition at 10 µM (EKVX) | inhibition at 10 µM (HCC-2998) | inhibition at 10 µM (HOP-62) | inhibition at 10 µM (HOP-92) | inhibition at 10 µM (HS 578T) | inhibition at 10 µM (HT29) | inhibition at 10 µM (K-562) | inhibition at 10 µM (M14) | inhibition at 10 µM (MALME-3M) | inhibition at 10 µM (MDA-MB-468) | inhibition at 10 µM (NCI-H226) | inhibition at 10 µM (NCI-H23) | inhibition at 10 µM (NCI-H460) | inhibition at 10 µM (NCI/ADR-RES) | inhibition at 10 µM (OVCAR-3) | inhibition at 10 µM (OVCAR-4) | inhibition at 10 µM (OVCAR-5) | other results
Cc1nc(-c2ccc(F)cc2)ccc1NC(=O)Nc1ccc2c(c1)OCO2 [Compound 5d, 1-(Benzo[d][1, 3]dioxol-5-yl)-3-(6-(4-fluorophenyl)-2-methylpyridin-3-yl)urea] | < 10% | 13% | < 10% | < 10% | < 10% | < 10% | < 10% | < 10% | 14% | 23% | 37% | < 10% | < 10% | < 10% | < 10% | < 10% | < 10% | < 10% | < 10% | < 10% | inhibition at 10 µM (OVCAR-8): < 10%; inhibition at 10 µM (PC-3): < 10%; inhibition at 10 µM (RPMI-8226): < 10%; inhibition at 10 µM (RXF 393): < 10%; inhibition at 10 µM (SF-268): < 10%; inhibition at 10 µM (SF-295): < 10%; inhibition at 10 µM (SK-MEL-28): < 10%; inhibition at 10 µM (SK-MEL-2): < 10%; inhibition at 10 µM (SNB-19): < 10%; inhibition at 10 µM (SNB-75): < 10%; inhibition at 10 µM (T-47D): < 10%; inhibition at 10 µM (TK-10): < 10%; inhibition at 10 µM (UO-31): < 10%
Cc1nc(-c2ccc(Cl)cc2)ccc1NC(=O)Nc1cccc(C(F)(F)F)c1 [Compound 5e, 1-(6-(4-Chlorophenyl)-2-methylpyridin-3-yl)-3-(3-(trifluoromethyl)phenyl)urea] | < 10% | 10% | 22% | < 10% | < 10% | < 10% | < 10% | < 10% | 25% | 20% | < 10% | < 10% | < 10% | < 10% | < 10% | 34% | < 10% | < 10% | < 10% | < 10% | inhibition at 10 µM (OVCAR-8): < 10%; inhibition at 10 µM (PC-3): 20%; inhibition at 10 µM (RPMI-8226): 15%; inhibition at 10 µM (RXF 393): < 10%; inhibition at 10 µM (SF-268): < 10%; inhibition at 10 µM (SF-295): < 10%; inhibition at 10 µM (SK-MEL-28): < 10%; inhibition at 10 µM (SK-MEL-2): < 10%; inhibition at 10 µM (SNB-19): < 10%; inhibition at 10 µM (SNB-75): < 10%; inhibition at 10 µM (T-47D): 13%; inhibition at 10 µM (TK-10): < 10%; inhibition at 10 µM (UO-31): < 10%
COc1ccc(NC(=O)Nc2ccc(-c3ccc(Cl)cc3)nc2C)cc1 [Compound 5f, 1-(6-(4-Chlorophenyl)-2-methylpyridin-3-yl)-3-(4-methoxyphenyl) urea] | < 10% | 25% | 18% | < 10% | < 10% | < 10% | < 10% | < 10% | 23% | 13% | 38% | < 10% | < 10% | 19% | < 10% | < 10% | < 10% | < 10% | < 10% | < 10% | inhibition at 10 µM (OVCAR-8): < 10%; inhibition at 10 µM (PC-3): < 10%; inhibition at 10 µM (RPMI-8226): 14%; inhibition at 10 µM (RXF 393): 21%; inhibition at 10 µM (SF-268): < 10%; inhibition at 10 µM (SF-295): < 10%; inhibition at 10 µM (SK-MEL-28): 13%; inhibition at 10 µM (SK-MEL-2): < 10%; inhibition at 10 µM (SNB-19): < 10%; inhibition at 10 µM (SNB-75): < 10%; inhibition at 10 µM (T-47D): < 10%; inhibition at 10 µM (TK-10): < 10%; inhibition at 10 µM (UO-31): < 10%
